Our source for the IC50 values is ChEMBL document CHEMBL1128327, “L-O-(2-malonyl)tyrosine: a new phosphotyrosyl mimetic for the preparation of Src homology 2 domain inhibitory peptides” (J Med Chem, 1995).

For orientation: IC50 means the concentration at which inhibition is half-maximal. Lower therefore signals higher potency.

What all share (type): functional
Assay [1] has as its target Proto-oncogene tyrosine-protein kinase Src (Homo sapiens, UniProt P12931). Put plainly: Inhibitory activity against Src protein tyrosine kinase SH2 domain.
Assay [2] is described as follows: Inhibitory activity against SH2 domain of PI3-kinase p85.
For assay [3], the target named is T1, Tyrosine-protein phosphatase non-receptor type 11 (Homo sapiens, UniProt Q06124).
T1 sequence (Q06124 whole entry): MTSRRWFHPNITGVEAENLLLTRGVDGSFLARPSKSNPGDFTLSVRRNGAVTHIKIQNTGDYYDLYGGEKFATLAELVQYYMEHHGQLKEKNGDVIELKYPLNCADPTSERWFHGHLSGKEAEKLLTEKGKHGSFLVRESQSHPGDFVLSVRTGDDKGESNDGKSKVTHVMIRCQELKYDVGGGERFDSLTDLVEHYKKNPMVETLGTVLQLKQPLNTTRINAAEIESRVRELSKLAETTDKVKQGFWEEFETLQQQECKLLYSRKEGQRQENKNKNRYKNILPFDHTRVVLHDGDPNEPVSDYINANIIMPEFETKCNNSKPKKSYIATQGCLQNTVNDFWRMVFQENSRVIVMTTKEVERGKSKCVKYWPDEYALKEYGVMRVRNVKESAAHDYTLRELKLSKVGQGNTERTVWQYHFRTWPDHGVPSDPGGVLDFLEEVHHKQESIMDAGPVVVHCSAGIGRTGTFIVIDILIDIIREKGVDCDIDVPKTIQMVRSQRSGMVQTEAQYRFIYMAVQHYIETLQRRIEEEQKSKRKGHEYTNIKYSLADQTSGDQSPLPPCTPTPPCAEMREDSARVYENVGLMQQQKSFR
As to the kind of experiment: Inhibitory activity against SH2 domain of SH-PTP2 (N-terminal) binding.

Assay [4] deals with Growth factor receptor-bound protein 2 (Homo sapiens, UniProt P62993). Put plainly: Inhibition of binding to Growth factor receptor bound protein 2 SH2 domain.
Chain of Growth factor receptor-bound protein 2 (P62993 whole entry, the tested form may be a part): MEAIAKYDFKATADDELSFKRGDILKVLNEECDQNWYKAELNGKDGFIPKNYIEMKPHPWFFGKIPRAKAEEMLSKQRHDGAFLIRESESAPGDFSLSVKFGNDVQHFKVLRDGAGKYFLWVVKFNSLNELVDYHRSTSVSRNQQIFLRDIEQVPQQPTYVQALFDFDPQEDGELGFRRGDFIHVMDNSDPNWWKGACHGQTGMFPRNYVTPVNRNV

Square brackets hold non-standard residues; d marks the D form. Peptide text beside a SMILES is read from it. * marks the point of attachment. pY = N[C@@H](Cc1ccc(OP(=O)(O)O)cc1)C(=O)O; X1 = O=C(O)C(C(=O)O)*

Chain of Proto-oncogene tyrosine-protein kinase Src (P12931 2-536 limits assumed): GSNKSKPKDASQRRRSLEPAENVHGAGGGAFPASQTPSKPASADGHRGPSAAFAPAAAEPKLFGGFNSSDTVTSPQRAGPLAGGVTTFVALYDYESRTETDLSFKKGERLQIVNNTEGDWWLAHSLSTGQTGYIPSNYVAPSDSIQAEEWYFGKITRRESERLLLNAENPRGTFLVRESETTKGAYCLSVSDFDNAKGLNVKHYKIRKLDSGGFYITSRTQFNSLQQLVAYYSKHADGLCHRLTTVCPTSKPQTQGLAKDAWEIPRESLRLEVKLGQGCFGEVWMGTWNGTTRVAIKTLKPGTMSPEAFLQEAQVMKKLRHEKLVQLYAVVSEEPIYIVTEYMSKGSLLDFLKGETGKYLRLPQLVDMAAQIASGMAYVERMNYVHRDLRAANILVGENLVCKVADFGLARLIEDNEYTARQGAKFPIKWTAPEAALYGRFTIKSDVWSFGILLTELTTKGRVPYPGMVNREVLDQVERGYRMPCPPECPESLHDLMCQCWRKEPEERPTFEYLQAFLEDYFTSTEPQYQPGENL

In assay [1], `CC[C@H](C)[C@H](NC(=O)[C@H](CCC(=O)O)NC(=O)[C@H](CCC(=O)O)NC(=O)[C@H](Cc1ccc(OP(=O)(O)O)cc1)NC(=O)[C@H](CCC(N)=O)NC(C)=O)C(=O)N1CCC[C@H]1C(N)=O` had an IC50 of 3.2 µM.

In assay [1], `CC[C@H](C)[C@H](NC(=O)[C@H](CCC(=O)O)NC(=O)[C@H](CCC(=O)O)NC(=O)[C@H](Cc1ccc(OC(C(=O)O)C(=O)O)cc1)NC(=O)[C@H](CCC(N)=O)NC(C)=O)C(=O)N1CCC[C@H]1C(N)=O` showed an IC50 of 25 µM. Same read-out and setting: the figure for `CC[C@H](C)[C@H](NC(=O)[C@H](CCC(=O)O)NC(=O)[C@H](Cc1ccc(OC(C(=O)O)C(=O)O)cc1)NC(=O)[C@H](Cc1ccc(OC(C(=O)O)C(=O)O)cc1)NC(=O)[C@H](CCC(N)=O)NC(C)=O)C(=O)N1CCC[C@H]1C(N)=O` is 22.8 µM. `CSCC[C@H](NC(=O)[C@@H]1CCCN1C(=O)[C@@H](NC(=O)[C@H](Cc1ccc(OC(C(=O)O)C(=O)O)cc1)NC(=O)[C@H](CC(=O)O)NC(C)=O)C(C)C)C(=O)N[C@@H](CC(C)C)C(N)=O` (Ac-DY(X1)VPML-NH2) registered a 50% inhibitory concentration (IC50) in assay [2] of 14.2 µM. On the same count and under the same terms, the result for `CSCC[C@H](NC(=O)[C@@H]1CCCN1C(=O)[C@@H](NC(=O)[C@H](Cc1ccc(OP(=O)(O)O)cc1)NC(=O)[C@H](CC(=O)O)NC(C)=O)C(C)C)C(=O)N[C@@H](CC(C)C)C(N)=O` (Ac-D[pY]VPML-NH2) reads 0.15 µM. As to `CC[C@H](C)[C@H](NC(=O)[C@H](Cc1ccc(OC(C(=O)O)C(=O)O)cc1)NC(=O)[C@H](CC(N)=O)NC(=O)[C@H](CC(C)C)NC(C)=O)C(=O)N[C@@H](CC(=O)O)C(=O)N[C@@H](CC(C)C)C(=O)N[C@@H](CC(=O)O)C(=O)N[C@@H](CC(C)C)C(=O)N[C@H](C(N)=O)C(C)C` (Ac-LNY(X1)IDLDLV-NH2), in assay [3], the IC50 worked out at 22 µM. On the same count and under the same terms, the figure for `CC[C@H](C)[C@H](NC(=O)[C@H](Cc1ccc(OP(=O)(O)O)cc1)NC(=O)[C@H](CC(N)=O)NC(=O)[C@H](CC(C)C)NC(C)=O)C(=O)N[C@@H](CC(=O)O)C(=O)N[C@@H](CC(C)C)C(=O)N[C@@H](CC(=O)O)C(=O)N[C@@H](CC(C)C)C(=O)N[C@H](C(N)=O)C(C)C` (Ac-LN[pY]IDLDLV-NH2) is 1.54 µM. Compound `CC[C@H](C)[C@H](NC(=O)[C@H](CC(N)=O)NC(=O)[C@@H](NC(=O)[C@H](Cc1ccc(OC(C(=O)O)C(=O)O)cc1)NC(=O)[C@H](CC(N)=O)NC(C)=O)C(C)C)C(=O)N[C@@H](CCC(=O)O)C(N)=O` (Ac-NY(X1)VNIE-NH2) displayed an IC50 in assay [4] of 120 µM.

With `CC[C@H](C)[C@H](NC(=O)[C@H](CC(N)=O)NC(=O)[C@@H](NC(=O)[C@H](Cc1ccc(OP(=O)(O)O)cc1)NC(=O)[C@H](CC(N)=O)NC(C)=O)C(C)C)C(=O)N[C@@H](CCC(=O)O)C(N)=O` (Ac-N[pY]VNIE-NH2), the IC50 in assay [4] is 0.9 µM.
